Activity calls are given as the source filed them.

In assay [1] the target is Eukaryotic translation initiation factor 4E (Mus musculus, UniProt P63073). As to the kind of experiment: eIF4E–eIF4G protein interaction inhibitors, dose response, biochemical, TR-FRET (AID 855).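 Further: potency for disrupting eIF4E binding to eIF4GI seen as loss of FRET.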 Format: functional. (In general: In TR-FRET formats the signal depends on donor and acceptor labels being close together.)
The target of the next assay is Cytochrome P450 3A4 (Homo sapiens, UniProt P08684). The conditions noted are these: Potency.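 Further: confirmatory qHTS run detecting inhibitors and substrates of CYP3A4.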
Sequence of Cytochrome P450 3A4 (P08684 whole entry, the tested form may be a part): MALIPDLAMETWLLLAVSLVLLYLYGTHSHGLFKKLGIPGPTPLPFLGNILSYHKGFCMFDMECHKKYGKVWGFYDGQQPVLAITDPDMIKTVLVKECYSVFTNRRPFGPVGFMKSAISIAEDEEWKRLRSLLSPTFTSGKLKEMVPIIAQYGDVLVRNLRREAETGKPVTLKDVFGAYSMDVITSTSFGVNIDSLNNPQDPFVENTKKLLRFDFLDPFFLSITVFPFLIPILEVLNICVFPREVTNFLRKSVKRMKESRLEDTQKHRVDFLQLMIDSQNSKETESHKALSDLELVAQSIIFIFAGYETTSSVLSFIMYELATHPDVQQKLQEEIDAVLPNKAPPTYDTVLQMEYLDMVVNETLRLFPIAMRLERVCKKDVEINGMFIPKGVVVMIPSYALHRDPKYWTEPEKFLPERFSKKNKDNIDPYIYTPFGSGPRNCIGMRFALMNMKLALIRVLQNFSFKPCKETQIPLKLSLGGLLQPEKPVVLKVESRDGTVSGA
Assay [2] deals with T1, Fatty acid synthase (Homo sapiens, UniProt P49327). Kind of assay: FAS thioesterase domain inhibitors, dose response, biochemical, kinetic fluorescence intensity (AID 624326).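 Further: rate of fluorescence rise from hydrolysis of a fluorogenic O-methyl fluorescein ester substrate.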 Format: functional.
T1 sequence (P49327 whole entry, the tested form may be a part): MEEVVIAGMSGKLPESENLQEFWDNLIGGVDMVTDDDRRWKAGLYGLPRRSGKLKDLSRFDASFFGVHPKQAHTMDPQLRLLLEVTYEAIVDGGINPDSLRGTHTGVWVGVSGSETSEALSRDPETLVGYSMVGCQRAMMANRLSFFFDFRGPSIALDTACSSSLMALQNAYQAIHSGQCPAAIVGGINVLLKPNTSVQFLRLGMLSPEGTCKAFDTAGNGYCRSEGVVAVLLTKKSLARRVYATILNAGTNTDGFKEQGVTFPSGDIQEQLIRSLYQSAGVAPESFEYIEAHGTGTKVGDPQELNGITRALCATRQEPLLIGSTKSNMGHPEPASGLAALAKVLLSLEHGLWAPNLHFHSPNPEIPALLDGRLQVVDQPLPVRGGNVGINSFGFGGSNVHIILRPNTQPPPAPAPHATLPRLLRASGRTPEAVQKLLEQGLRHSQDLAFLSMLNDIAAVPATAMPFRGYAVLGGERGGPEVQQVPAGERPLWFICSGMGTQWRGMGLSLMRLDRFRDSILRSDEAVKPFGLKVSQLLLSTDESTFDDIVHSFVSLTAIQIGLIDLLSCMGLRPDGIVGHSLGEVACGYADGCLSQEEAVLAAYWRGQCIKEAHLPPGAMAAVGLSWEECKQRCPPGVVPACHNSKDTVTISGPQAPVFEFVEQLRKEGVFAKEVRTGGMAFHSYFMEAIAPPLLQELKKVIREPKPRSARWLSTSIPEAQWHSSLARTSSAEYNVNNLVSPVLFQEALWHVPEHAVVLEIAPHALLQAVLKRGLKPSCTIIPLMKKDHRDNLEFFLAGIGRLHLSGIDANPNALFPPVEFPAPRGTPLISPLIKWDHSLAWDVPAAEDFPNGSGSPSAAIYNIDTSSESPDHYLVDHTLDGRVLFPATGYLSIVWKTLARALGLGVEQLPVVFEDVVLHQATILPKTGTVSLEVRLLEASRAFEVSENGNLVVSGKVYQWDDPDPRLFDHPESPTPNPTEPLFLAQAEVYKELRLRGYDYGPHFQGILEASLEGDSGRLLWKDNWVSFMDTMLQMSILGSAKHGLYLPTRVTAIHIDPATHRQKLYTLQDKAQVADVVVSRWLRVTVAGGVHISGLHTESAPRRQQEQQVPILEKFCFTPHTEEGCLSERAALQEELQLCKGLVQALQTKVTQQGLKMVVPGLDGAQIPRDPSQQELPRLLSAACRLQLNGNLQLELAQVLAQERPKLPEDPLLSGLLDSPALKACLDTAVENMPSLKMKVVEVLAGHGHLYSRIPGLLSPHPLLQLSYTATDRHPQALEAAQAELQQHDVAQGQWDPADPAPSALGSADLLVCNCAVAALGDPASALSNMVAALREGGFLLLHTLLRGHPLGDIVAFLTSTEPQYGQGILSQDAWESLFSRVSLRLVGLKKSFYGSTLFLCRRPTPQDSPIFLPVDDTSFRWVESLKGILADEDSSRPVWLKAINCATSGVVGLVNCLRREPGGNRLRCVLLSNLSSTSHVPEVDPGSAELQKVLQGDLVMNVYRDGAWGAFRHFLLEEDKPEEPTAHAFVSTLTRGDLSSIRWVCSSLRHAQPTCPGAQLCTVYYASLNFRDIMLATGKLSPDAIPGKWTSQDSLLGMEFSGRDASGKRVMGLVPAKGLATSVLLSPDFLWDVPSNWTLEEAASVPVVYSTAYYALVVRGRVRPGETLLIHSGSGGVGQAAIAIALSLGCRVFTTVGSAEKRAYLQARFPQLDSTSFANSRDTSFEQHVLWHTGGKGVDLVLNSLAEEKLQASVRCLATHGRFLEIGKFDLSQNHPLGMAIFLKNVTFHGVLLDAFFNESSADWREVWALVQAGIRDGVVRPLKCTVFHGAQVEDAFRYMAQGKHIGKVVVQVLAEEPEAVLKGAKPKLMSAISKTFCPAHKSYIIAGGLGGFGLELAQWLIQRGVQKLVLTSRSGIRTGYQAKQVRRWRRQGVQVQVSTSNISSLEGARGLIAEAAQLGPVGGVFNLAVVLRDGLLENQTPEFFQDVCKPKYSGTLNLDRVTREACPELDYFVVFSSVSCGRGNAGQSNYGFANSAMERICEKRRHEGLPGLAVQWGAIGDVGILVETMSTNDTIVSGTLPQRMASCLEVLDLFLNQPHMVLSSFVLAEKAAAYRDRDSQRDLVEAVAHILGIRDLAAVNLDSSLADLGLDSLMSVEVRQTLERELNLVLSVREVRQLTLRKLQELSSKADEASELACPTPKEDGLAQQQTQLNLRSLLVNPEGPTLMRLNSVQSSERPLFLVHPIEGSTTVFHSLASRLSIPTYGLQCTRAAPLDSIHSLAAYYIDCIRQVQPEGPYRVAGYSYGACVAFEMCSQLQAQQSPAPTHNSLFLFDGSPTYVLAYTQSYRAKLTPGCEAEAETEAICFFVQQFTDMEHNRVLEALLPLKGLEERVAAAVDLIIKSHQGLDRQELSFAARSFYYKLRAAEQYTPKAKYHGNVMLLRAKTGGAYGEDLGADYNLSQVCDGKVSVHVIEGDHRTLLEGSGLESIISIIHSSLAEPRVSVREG
The target in assay [3] is T1, Fatty acid synthase. As to the kind of experiment: FAS thioesterase domain inhibitors, dose response, biochemical, endpoint fluorescence intensity, uHTS hits (AID 624327).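 Further: fluorescence from hydrolysis of an O-methyl fluorescein acyl ester substrate by the enzyme.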 The format is functional.
Assay [4] has as its target T2, High affinity choline transporter 1 (Homo sapiens, UniProt Q9GZV3).
T2 sequence (Q9GZV3 whole entry): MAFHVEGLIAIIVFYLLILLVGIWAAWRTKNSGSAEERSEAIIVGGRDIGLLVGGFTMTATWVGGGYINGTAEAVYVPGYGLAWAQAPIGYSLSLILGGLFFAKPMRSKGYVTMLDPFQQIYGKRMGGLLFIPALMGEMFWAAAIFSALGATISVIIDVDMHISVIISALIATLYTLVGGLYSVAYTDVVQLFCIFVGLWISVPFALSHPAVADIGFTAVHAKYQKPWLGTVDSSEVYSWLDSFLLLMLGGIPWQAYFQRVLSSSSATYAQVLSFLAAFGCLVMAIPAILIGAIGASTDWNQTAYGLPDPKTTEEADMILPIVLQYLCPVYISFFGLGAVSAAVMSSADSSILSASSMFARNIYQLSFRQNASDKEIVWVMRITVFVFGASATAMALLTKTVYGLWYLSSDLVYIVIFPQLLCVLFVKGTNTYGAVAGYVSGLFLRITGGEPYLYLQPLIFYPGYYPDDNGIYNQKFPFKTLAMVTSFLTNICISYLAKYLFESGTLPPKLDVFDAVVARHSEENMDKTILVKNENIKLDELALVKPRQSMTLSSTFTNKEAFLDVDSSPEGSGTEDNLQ
Kind of assay: CHT inhibitors, dose response, cell-based, 5-point CRC, membrane potential dye (AID 504840). Format: functional.

The target of assay [5] is T3, Calpain-2 catalytic subunit (Sus scrofa, UniProt P43367).
T3 sequence (P43367 whole entry): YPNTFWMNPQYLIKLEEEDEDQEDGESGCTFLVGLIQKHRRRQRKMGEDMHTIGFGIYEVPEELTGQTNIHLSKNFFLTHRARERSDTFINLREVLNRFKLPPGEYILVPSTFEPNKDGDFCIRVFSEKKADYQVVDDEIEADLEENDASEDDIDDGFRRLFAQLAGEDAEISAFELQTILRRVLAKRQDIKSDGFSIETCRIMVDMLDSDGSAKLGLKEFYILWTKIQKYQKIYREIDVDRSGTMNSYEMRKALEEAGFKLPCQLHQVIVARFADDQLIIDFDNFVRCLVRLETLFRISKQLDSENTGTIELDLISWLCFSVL
As to the kind of experiment: pig calpain II inhibitor potency, dose response, biochemical, fluorogenic peptide substrate (AID 1420). Format: functional.

Assay [6] can be described thus: Luminescence Cell-Based Dose Confirmation HTS to Identify Inhibitors of Platelet Dense Granule Release. [Related pubchem assays: 1663 (Primary HTS), 1678 (Summary of Project)]. The format is functional.
Assay [7] concerns the target Luciferin 4-monooxygenase (Photinus pyralis, UniProt P08659). Kind of assay: firefly luciferase enzyme inhibitors, dose response, biochemical, luminescence (AID 1891).
Assay [8] concerns the target T4, Corticotropin-releasing factor receptor 2/Corticotropin-releasing factor-binding protein (Homo sapiens, UniProt P24387+Q13324).
T4 sequence (Q13324 whole entry): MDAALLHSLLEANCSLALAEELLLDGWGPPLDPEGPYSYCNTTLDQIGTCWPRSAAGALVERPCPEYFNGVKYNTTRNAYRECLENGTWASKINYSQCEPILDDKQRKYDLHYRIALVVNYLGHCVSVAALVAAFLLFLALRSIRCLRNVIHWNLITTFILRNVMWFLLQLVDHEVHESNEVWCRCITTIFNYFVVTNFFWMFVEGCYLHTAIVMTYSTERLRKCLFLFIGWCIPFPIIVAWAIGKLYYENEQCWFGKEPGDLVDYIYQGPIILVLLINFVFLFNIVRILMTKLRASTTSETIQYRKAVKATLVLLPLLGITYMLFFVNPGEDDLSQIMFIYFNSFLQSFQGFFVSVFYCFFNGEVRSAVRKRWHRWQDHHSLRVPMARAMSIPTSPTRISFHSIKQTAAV
T4 sequence (P24387 whole entry): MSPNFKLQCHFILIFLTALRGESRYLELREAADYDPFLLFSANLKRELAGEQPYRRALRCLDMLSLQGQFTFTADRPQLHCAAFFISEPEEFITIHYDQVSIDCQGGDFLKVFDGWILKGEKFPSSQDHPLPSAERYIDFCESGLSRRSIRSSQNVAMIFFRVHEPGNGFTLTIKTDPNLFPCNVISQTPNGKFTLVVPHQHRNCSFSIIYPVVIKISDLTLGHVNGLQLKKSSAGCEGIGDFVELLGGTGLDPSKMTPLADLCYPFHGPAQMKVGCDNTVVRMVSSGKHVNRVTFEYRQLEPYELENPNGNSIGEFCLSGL
Kind of assay: Dose Response confirmation of uHTS hits for small molecule antagonists of the CRF-binding protein and CRF-R2 receptor complex. Format: functional. As to conditions: read-out: IC50_Mean.

Assay [9] has as its target T4, Corticotropin-releasing factor receptor 2/Corticotropin-releasing factor-binding protein. As to the kind of experiment: activators of CRF receptor 2 with binding protein – uHTS hits, confirmation (AID 602473). Format: functional. The conditions noted are these: read-out: EC50_Mean.
Assay [10] can be described thus: inhibitors of HIV Env-driven cell fusion, dose response, cherry-pick (AID 652057). Format: functional, cell-based.
Assay [11] can be described thus: inhibitors of clade B AD8 Env fusion, dose response, cell-based, cherry-pick (AID 652062).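 Further: luciferase signal from cell-cell fusion driven by HIV-1 clade B AD8 Env; potency is for inhibitors of fusion seen as a drop in luminescence.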 Format: functional.
A short description of assay [12]: ZM109 Env clade C HIV-1 fusion inhibitors, dose response, HeLa effector, CEM target cells, luciferase, cherry-pick (AID 652058). The format is functional, cell-based.
A short description of assay [13]: P. falciparum Dd2 growth inhibitors, dose response, SYBR Green, cherry-picked samples (AID 1159567). Format: functional, cell-based.

Sequence of Eukaryotic translation initiation factor 4E (P63073 whole entry): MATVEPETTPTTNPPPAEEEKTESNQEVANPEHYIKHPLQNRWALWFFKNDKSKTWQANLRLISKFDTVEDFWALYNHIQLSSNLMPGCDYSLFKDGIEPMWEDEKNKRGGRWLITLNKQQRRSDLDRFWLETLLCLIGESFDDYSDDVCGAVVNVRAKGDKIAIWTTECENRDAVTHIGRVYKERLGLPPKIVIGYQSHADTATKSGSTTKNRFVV
Sequence of Luciferin 4-monooxygenase (P08659 whole entry): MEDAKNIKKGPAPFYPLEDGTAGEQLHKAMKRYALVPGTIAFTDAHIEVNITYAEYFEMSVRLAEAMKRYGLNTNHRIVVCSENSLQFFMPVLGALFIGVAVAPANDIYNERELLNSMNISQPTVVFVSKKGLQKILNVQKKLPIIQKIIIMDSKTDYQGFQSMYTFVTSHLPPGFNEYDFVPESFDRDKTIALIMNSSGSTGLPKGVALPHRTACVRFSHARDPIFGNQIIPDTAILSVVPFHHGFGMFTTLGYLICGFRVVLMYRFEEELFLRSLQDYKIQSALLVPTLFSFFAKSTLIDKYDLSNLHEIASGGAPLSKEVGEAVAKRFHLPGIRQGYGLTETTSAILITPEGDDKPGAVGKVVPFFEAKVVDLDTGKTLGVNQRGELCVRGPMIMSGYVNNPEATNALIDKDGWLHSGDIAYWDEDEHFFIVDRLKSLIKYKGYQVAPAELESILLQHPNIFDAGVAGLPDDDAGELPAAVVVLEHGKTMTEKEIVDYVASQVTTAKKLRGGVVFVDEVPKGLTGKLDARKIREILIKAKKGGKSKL

As for `Cc1cc(NC(=O)c2noc3c2CCc2ccccc2-3)n(-c2ccccc2)n1`, in assay [1], the IC50 was > 64 µM (inactive). A word on the AC50: it is the concentration giving half of the maximal activity seen. As to `COC(=O)c1ccc(C23CC4(C2)[C@H](CN(CC2CCCCC2)[C@@H]4c2ccccc2)C3c2ccc(C(F)(F)F)cc2)cc1` (some centres undefined), the AC50 on Cytochrome P450 3A4 is 15.8 µM (inconclusive). Regarding `CCCCCc1nc2sc3c(c2c(=O)n1NC(=O)c1ccc([N+](=O)[O-])cc1)CC(C)(C)OC3`, the values for the IC50 (on Fatty acid synthase [2]; at Fatty acid synthase [3]; in assay [4]) were 5.75 µM (active), 5.09 µM (active) and 12.6 µM (active), respectively. Regarding `Cc1nn(Cc2ccc(Cl)cc2Cl)c(C)c1NC(=O)c1nn(C)cc1Cl`, the IC50 in assay [5] is 0.917 µM (not active). With `CCC(C)NC(=O)CSc1nc2c(sc(=S)n2Cc2ccco2)c(=O)n1-c1ccccc1` (centres undefined), the figures for the IC50 at Fatty acid synthase [2] and at Fatty acid synthase [3] were 60.6 µM (inactive) and 30 µM (inactive), respectively.

In the case of `O=C(/C=C/c1cccc([N+](=O)[O-])c1)N1CCN(S(=O)(=O)c2cccs2)CC1`, the IC50 on Fatty acid synthase [2] is 2.31 µM (active); on Fatty acid synthase [3], 2.69 µM (active). As to `Cc1ccc([N+](=O)[O-])cc1NC(=O)C[n+]1ccccc1`, the IC50 in [5] is reported as > 50 µM (not active). `Cc1ccc(S(=O)(=O)Nc2cccc(-c3ccc(N4CCCCCC4)nn3)c2)c(C)c1`: the IC50 is 6.9 µM (active) on Fatty acid synthase [2] and 5.11 µM (active) at Fatty acid synthase [3].

`CCc1cccc(C)c1NC(=O)COC(=O)c1cc([N+](=O)[O-])ccc1N1CCOCC1`: the IC50 at Fatty acid synthase [2] was 10.7 µM (active); on Fatty acid synthase [3], 10.5 µM (active).

In the case of `CC(=O)N1CC=CC1(CC(C)C)C(=O)NCc1ccccn1` (centres undefined), the AC50 at Cytochrome P450 3A4 was 20 µM (inconclusive). Take `Cc1cccc(OCC(=O)Nc2nc[nH]n2)c1C`: the EC50 in assay [6] is recorded as > 112 µM (not active). `Cc1cccc(OCC(=O)Nc2nnc[nH]2)c1C`: in [7], the EC50 is > 112 µM (not active). On to `O=C(Oc1ccc(=O)n(-c2ccccc2)n1)c1cccc(Cl)c1`, for which the IC50 in assay [1] is > 64 µM (inactive). As for `COCCn1cc(C(=O)N2CCC(C)CC2)c2c3ccccc3n(C)c2c1=O`, the EC50 in assay [7] and in assay [6] was > 112 µM (not active) throughout. Turning to `CCCn1c(C)nc2c(NCc3ccccc3)nc(C)nc21`, the AC50 on Cytochrome P450 3A4 was 15.8 µM (inconclusive). Take `CCOC(=O)NCCc1ccc(OC)cc1`: the EC50 in [7] and in [6] was > 112 µM (not active) in each case.

Regarding `O=C(Nc1c(C(=O)N2CCOCC2)cnn1-c1ccccc1)c1ccc([N+](=O)[O-])cc1`, the IC50 at Fatty acid synthase [2] is 9.36 µM (active); at Fatty acid synthase [3], 11.7 µM (active). For the compound `c1cc2c3c(c1)ccc1cccc(c13)C2`, the AC50 on Cytochrome P450 3A4 is 25.1 µM (inconclusive). As to `Cc1c(C(=O)N2CCCCC2)nn(-c2ccc(Cl)cc2)c(=O)c1C#N`, in assay [1], the IC50 was 50 µM (inactive). Turning to `Cc1cccc(NC(=O)c2cc(S(=O)(=O)c3ccccc3)ccc2Cl)c1`, the IC50 in assay [5] was 7.13 µM (not active); in assay [8], 3.47 µM (active). Besides, the EC50 in [9] was > 53 µM (inactive). Regarding `CC(=O)[C@@H]1[C@H]2[C@H](C(=O)[C@H]3OC[C@@H]2O3)[C@H]2C=Cc3ccccc3N21`, the AC50 at Cytochrome P450 3A4 was 25.1 µM (inconclusive). As for `CCOC(=O)N1CCN(CC(=O)N2CCC(C(N)=O)CC2)CC1`, the EC50 in assay [7] and in assay [6] was > 112 µM (not active) throughout.

Take `CCOC(=O)N1CCN(Cc2nc3c(c(=O)n(C)c(=O)n3C)n2Cc2cccc3ccccc23)CC1`: the EC50 in assay [7] and in assay [6] was > 112 µM (not active) throughout.

In the case of `Cc1nn(-c2ccc(Cl)c(Cl)c2Cl)c(=O)c2ccccc12`, the IC50 in assay [5] was 22.8 µM (not active). As for `Cn1cc(C2=C(c3cn(CCCSC(=N)N)c4ccccc34)C(=O)NC2=O)c2ccccc21`, the AC50 on Cytochrome P450 3A4 is 6.31 µM (inconclusive). As for `CCOC(=O)N1CCC(Nc2ccc(N3C(=O)C4CCCCC4C3=O)cc2[N+](=O)[O-])CC1` (centres undefined), the IC50 in assay [5] was 7.24 µM (active). Regarding `CC(=O)NC1(c2ccccc2)CCN(C(=O)N2CCOCC2)CC1`, the IC50 in [5] was 7.15 µM (not active). For the compound `COC(=O)[C@@H]1C[C@@]2(O)[C@H](O)[C@H](O)[C@H](O)C[C@H]2N1Cc1cccnc1`, the AC50 at Cytochrome P450 3A4 is 31.6 µM (inconclusive). The same measure, in the same setting: the same measure for `COC(=O)CCC(C)C1CCC2C3C(O)C[C@@H]4CC(O)CC[C@@]4(C)C3CC(O)[C@]12C` (some centres undefined): 20 µM (inconclusive). Consider `COc1ccc(C(=O)N/C(=C\c2cn(S(=O)(=O)N(C)C)c3ccccc23)C(=O)N2CCOCC2)cc1`, for which the IC50 on Fatty acid synthase [2] is 4.26 µM (active); on Fatty acid synthase [3] it was 1.83 µM (active).

In the case of `CCOC(=O)[C@@H]1[C@H]2COc3ccc(Br)cc3[C@@H]2N2C(=O)N(c3cccc(Cl)c3)C(=O)[C@@]12C`, the IC50 at Fatty acid synthase [2] is 11.8 µM (active); on Fatty acid synthase [3] it was 22.9 µM (inactive). Consider `COc1cc2c(cc1OC)C1Cc3ccc(OC)c(OC)c3CN1CC2` (centres undefined), for which the AC50 at Cytochrome P450 3A4 is 31.6 µM (inconclusive). Take `CC(C)(C)OC(=O)N1CCc2onc(-c3ccc(Br)cc3)c2C1=O`: the figures for the AC50 in assay [10] and in assay [11] were 64.9 µM (active) and 59.9 µM (active), respectively. With `C[C@H](CO)N1C[C@H](C)[C@H](CN(C)S(=O)(=O)c2cccs2)Oc2ccc(NC(=O)Nc3cccc4ccccc34)cc2CC1=O`, the AC50 in assay [10], in [12] and in assay [11] was < 0.26 µM (active) each time. In the case of `COc1ccc(NC(=O)N(C)C[C@H]2OCc3ccccc3-c3c(n(C)c4ccccc34)C(=O)N([C@@H](C)CO)C[C@H]2C)c(OC)c1`, the AC50 in assay [13] was 4.92 µM (active). Take `COc1ccc(CN2C[C@H](C)[C@H](OC)CN(C)C(=O)c3cc(NC(=O)c4nc5ccccc5s4)ccc3OC[C@@H]2C)cc1`: the AC50 in assay [13] was 5.29 µM (active). Turning to `C[C@H](CO)N1C[C@H](C)[C@@H](CN(C)Cc2ccc(Oc3ccccc3)cc2)Oc2ccc(NS(=O)(=O)c3cn(C)cn3)cc2CC1=O`, in assay [13], the AC50 is 9.82 µM (active). With `COc1cccc(S(=O)(=O)N2CCC3(CC2)CN[C@@H](CO)c2[nH]c4cc(OC)ccc4c23)c1`, in assay [13], the AC50 was 5.39 µM (active). Still for that read-out and setting: the result for `C[C@H](CO)N1C[C@H](C)[C@H](CN(C)C(=O)C2CC2)Oc2cc(C#Cc3ccccc3)ccc2S1(=O)=O` reads 4.27 µM (active); that for `C[C@@H]1CN([C@H](C)CO)S(=O)(=O)c2ccc(C#Cc3ccccc3)cc2O[C@H]1CN(C)S(=O)(=O)c1cn(C)cn1`, 3.7 µM (active). For the compound `COc1ccc2c(c1)OCc1c-2oc2cc(OC)ccc12` [DEHYDROVARIABILIN], on Cytochrome P450 3A4, the AC50 is 39.8 µM (inconclusive).

These data come from ChEMBL document CHEMBL1201862, “PubChem BioAssay data set” (2004).
